Measurements as given in patent US8802678B2, “Carbonylated (aza) cyclohexanes as dopamine D3 receptor ligands” (Bioprojet, priority 2006, dated 2014).

| SMILES | melting point [°C] |
| --- | --- |
| N#CCCCC(=O)N[C@H]1CC[C@H](CCN2CCN(c3csc4cc(C(F)(F)F)ccc34)CC2)CC1 [Example 253, 4-Cyano-N-(4-{2-[4-(6-trifluoromethylbenzo[b]thiophen-3-yl)piperazin-1-yl]ethyl}cyclohexyl)butanamide] | 169 |
| N#CCCCC(=O)N[C@H]1CC[C@H](CCN2CCN(c3cc(F)cc(F)c3)CC2)CC1 [Example 254, 4-Cyano-N-(4-{2-[4-(3,5-difluorophenyl)piperazin-1-yl]ethyl}cyclohexyl)butanamide] | 165 |
| CCc1ccc(N2CCN(CC[C@H]3CC[C@H](NC(=O)CC#N)CC3)CC2)c(CC)c1 [Example 255, 2-Cyano-N-(4-{2-[4-(2,4-diethylphenyl)piperazin-1-yl]ethyl}cyclohexyl)acetamide] | 183 |
| O=C(CC(F)(F)F)N[C@H]1CC[C@H](CCN2CCN(c3cccc(C(F)(F)F)c3F)CC2)CC1 [Example 256, 3,3,3-Trifluoro-N-(4-{2-[4-(2-fluoro-3-trifluoromethylphenyl)-piperazin-1-yl]ethyl}cyclohexyl)-propanamide] | 198 |
| Cc1ccc(Cl)cc1N1CCN(CC[C@H]2CC[C@H](NC(=O)CCC#N)CC2)CC1 [Example 257, N-(4-{2-[4-(5-Chloro-2-methylphenyl)piperazin-1-yl]ethyl}cyclohexyl)-3-cyanopropanamide] | 133 to 134 |
| Cc1c(Cl)cccc1N1CCN(CC[C@H]2CC[C@H](NC(=O)CCCC#N)CC2)CC1 [Example 258, N-(4-{2-[4-(3-Chloro-2-methylphenyl)piperazin-1-yl]ethyl}cyclohexyl)-4-cyanobutanamide] | 180 to 183 |
| N#CCCCC(=O)N[C@H]1CC[C@H](CCN2CCN(c3cc(F)cc(Cl)c3)CC2)CC1 [Example 259, N-(4-{2-[4-(3-Chloro-5-fluorophenyl)piperazin-1-yl]ethyl}cyclohexyl)-4-cyanobutanamide] | 158 to 159 |
| COCC(=O)N[C@H]1CC[C@H](CCN2CCN(c3cccc(C(F)(F)F)c3F)CC2)CC1 [Example 260, N-(4-{2-[4-(2-Fluoro-3-trifluoromethylphenyl)piperazin-1-yl]ethyl}cyclohexyl)-2-methoxyacetamide] | 142 |
| N#CCCCC(=O)N[C@H]1CC[C@H](CCN2CCN(c3cc(Cl)cc(Cl)c3)CC2)CC1 [Example 261, 4-Cyano-N-(4-{2-[4-(3,5-dichlorophenyl)piperazin-1-yl]ethyl}cyclohexyl)butanamide trans/cis 98/2] | 179 |
| N#CCCCC(=O)N[C@H]1CC[C@H](CCN2CCN(c3cccc4cccnc34)CC2)CC1 [Example 262, 4-Cyano-N-{4-[2-(4-quinolin-8-ylpiperazin-1-yl)ethyl]cyclohexyl}butanamide] | 180 |
| CC(=O)CN1CCC(CCN2CCN(c3ccc4scnc4c3)CC2)CC1 [Example 264, 1-{4-[2-(4-Benzothiazol-5-ylpiperazin-1-yl)ethyl]piperidin-1-yl}propan-2-one] | 110 |
| O=C(CCC(F)(F)F)N[C@H]1CC[C@H](CCN2CCN(c3cccc(C(F)(F)F)c3)CC2)CC1 [Example 265, 4,4,4-Trifluoro-N-(4-{2-[4-(3-trifluoromethylphenyl)piperazin-1-yl]ethyl}cyclohexyl)butanamide] | 152 |
| N#CCCC(=O)N[C@H]1CC[C@H](CCN2CCN(c3ccccc3F)CC2)CC1 [Example 266, 3-Cyano-N-(4-{2-[4-(2-fluorophenyl)piperazin-1-yl]ethyl}cyclohexyl)propanamide] | 164 |
| Cc1cccc(C)c1N1CCN(CC[C@H]2CC[C@H](NC(=O)CC#N)CC2)CC1 [Example 267, 2-Cyano-N-(4-{2-[4-(2,6-dimethylphenyl)piperazin-1-yl]ethyl}cyclohexyl)acetamide] | 143 |
| N#CCC(=O)N[C@H]1CC[C@H](CCN2CCN(c3cccc(CO)c3)CC2)CC1 [Example 268, 2-Cyano-N-(4-{2-[4-(3-hydroxymethylphenyl)piperazin-1-yl]ethyl}cyclohexyl)acetamide] | 180 |
| CSc1cccc(N2CCN(CC[C@H]3CC[C@H](NC(=O)CCC#N)CC3)CC2)c1 [Example 269, 3-Cyano-N-(4-{2-[4-(3-methylsulfanylphenyl)piperazin-1-yl]ethyl}cyclohexyl)-propanamide] | 98 |
| COCc1cccc(N2CCN(CC[C@H]3CC[C@H](NC(=O)CC#N)CC3)CC2)c1 [Example 270, 2-Cyano-N-(4-{2-[4-(3-methoxymethylphenyl)piperazin-1-yl]ethyl}cyclohexyl)acetamide] | 117 |
| CCCc1cccc(N2CCN(CC[C@H]3CC[C@H](NC(=O)CC#N)CC3)CC2)c1 [Example 271, 2-Cyano-N-(4-{2-[4-(3-propylphenyl)piperazin-1-yl]ethyl}cyclohexyl)acetamide] | 132 |
| N#CCC(=O)N[C@H]1CC[C@H](CCN2CCN(c3ccc(Cl)c(Cl)c3)CC2)CC1 [Example 272, 2-Cyano-N-(4-{2-[4-(3,4-dichlorophenyl)piperazin-1-yl]ethyl}cyclohexyl)acetamide] | 216 |

| SMILES | melting point [°C] |
| --- | --- |
| N#CCC(=O)N[C@H]1CC[C@H](CCN2CCN(c3ccc(C(F)(F)F)cc3)CC2)CC1 [Example 274, 2-Cyano-N-(4-{2-[4-(4-trifluoromethylphenyl)piperazin-1-yl]ethyl}cyclohexyl)acetamide] | 240 |
| N#CCC(=O)N[C@H]1CC[C@H](CCN2CCN(c3ccc(Cl)cc3)CC2)CC1 [Example 275, N-(4-{2-[4-(4-Chlorophenyl)piperazin-1-yl]ethyl}cyclohexyl)-2-cyanoacetamide] | 247 |
| N#CCC(=O)N[C@H]1CC[C@H](CCN2CCN(c3cccc(-c4ccccc4)c3)CC2)CC1 [Example 276, N-{4-[2-(4-Biphenyl-3-yl-piperazin-1-yl)ethyl]cyclohexyl}-2-cyanoacetamide] | 157 |
| N#CCC(=O)N[C@H]1CC[C@H](CCN2CCN(c3ccc(F)c(C(F)(F)F)c3)CC2)CC1 [Example 277, 2-Cyano-N-(4-{2-[4-(4-fluoro-3-trifluoromethylphenyl)piperazin-1-yl]ethyl}cyclohexyl)acetamide] | 181 |
| Cc1ccc(F)cc1N1CCN(CC[C@H]2CC[C@H](NC(=O)CCC#N)CC2)CC1 [Example 278, 3-Cyano-N-(4-{2-[4-(5-fluoro-2-methylphenyl)piperazin-1-yl]ethyl}cyclohexyl)propanamide] | 146 |
| N#CCC(=O)N[C@H]1CC[C@H](CCN2CCN(c3cccc(Br)c3)CC2)CC1 [Example 280, N-(4-{2-[4-(3-Bromophenyl)piperazin-1-yl]ethyl}cyclohexyl)-2-cyanoacetamide] | 168 |
| CC(F)(F)c1cccc(N2CCN(CC[C@H]3CC[C@H](NC(=O)CC#N)CC3)CC2)c1 [Example 281, 2-Cyano-N-[4-(2-{4-[3-(1,1-difluoroethyl)phenyl]piperazin-1-yl}ethyl)cyclohexyl]acetamide trans/cis 90/10] | 150 |
| CC(C)(C#N)C(=O)N[C@H]1CC[C@H](CCN2CCN(c3cccc(C(F)(F)F)c3)CC2)CC1 [Example 282, 2-Cyano-2,2-dimethyl-N-(4-{2-[4-(3-trifluoromethylphenyl)-piperazin-1-yl]ethyl}cyclohexyl)-acetamide] | 150 |
| N#CCCCC(=O)N[C@H]1CC[C@H](CCN2CCN(c3ccc(F)cc3)CC2)CC1 [Example 283, 4-Cyano-N-(4-{2-[4-(4-fluorophenyl)piperazin-1-yl]ethyl}cyclohexyl)butanamide] | 154 |
| O=C(CC(F)(F)F)N[C@H]1CC[C@H](CCN2CCN(c3ccc(F)cc3)CC2)CC1 [Example 284, 3,3,3-Trifluoro-N-(4-{2-[4-(4-fluorophenyl)piperazin-1-yl]ethyl}cyclohexyl)propanamide] | 200 |
| CCc1ccc(N2CCN(CC[C@H]3CC[C@H](NC(=O)CC#N)CC3)CC2)cc1 [Example 285, 2-Cyano-N-(4-{2-[4-(4-ethylphenyl)piperazin-1-yl]ethyl}cyclohexyl)acetamide] | 210 |
| CCc1ccccc1N1CCN(CC[C@H]2CC[C@H](NC(=O)CCCC#N)CC2)CC1 [Example 286, 4-Cyano-N-(4-{2-[4-(2-ethylphenyl)piperazin-1-yl]ethyl}cyclohexyl)butanamide] | 124 |
| O=C(C[C@H]1CC[C@H](CCN2CCN(c3cccc(C(F)(F)F)c3)CC2)CC1)N1CCCC1 [Example 294, 1-Pyrrolidin-1-yl-2-(4-{2-[4-(3-trifluoromethylphenyl)piperazin-10yl]ethyl}cyclohexyl)ethanone] | 131 |
| CNC(=O)C=C1CCC(CCN2CCN(c3ccccc3F)CC2)CC1 (centres unmarked) [Example 299, 2-(4-{2-[4-(2-Fluorophenyl)piperazin-1-yl]ethyl}cyclohexylidene)-N-methylacetamide] | 135 |
| CNC(=O)C[C@H]1CC[C@H](CCN2CCN(c3ccccc3F)CC2)CC1 [Example 300, 2-(4-{2-[4-(2-Fluorophenyl)-piperazin-1-yl]ethyl}cyclohexyl)-N-methylacetamide] | 165 to 166 |
| O=C(C=C1CCC(CCN2CCN(c3ccccc3F)CC2)CC1)N1CCCC1 (centres unmarked) [Example 301, 2-(4-{2-[4-(2-Fluorophenyl)-piperazin-1-yl]ethyl}cyclohexylidene)-1-pyrrolidin-1-ylethanone] | 109 to 110 |
| O=C(C[C@H]1CC[C@H](CCN2CCN(c3ccccc3F)CC2)CC1)N1CCCC1 [Example 302, 2-(4-{2-[4-(2-Fluorophenyl)-piperazin-1-yl]ethyl}cyclohexyl)-1-pyrrolidin-1-ylethanone] | 92 to 93 |
| O=C(C=C1CCC(CCN2CCN(c3ccccc3F)CC2)CC1)NCC(F)(F)F (centres unmarked) [Example 303, 2-(4-{2-[4-(2-Fluorophenyl)-piperazin-1-yl]ethyl}cyclo-hexylidene)-N-(2,2,2-trifluoroethyl)acetamide] | 125 |
| O=C(C[C@H]1CC[C@H](CCN2CCN(c3ccccc3F)CC2)CC1)NCC(F)(F)F [Example 304, 2-(4-{2-[4-(2-Fluorophenyl)piperazin-1-yl]ethyl}cyclohexyl)-N-(2,2,2-trifluoroethyl)acetamide] | 158 to 159 |
